Source: article PMC9004777, “Double drugging of prolyl-tRNA synthetase provides a new paradigm for anti-infective drug development” (PLoS Pathogens, 2022)
Read-outs that look alike come from different tables or passages of the source.

Legend:
[1] = molecular target: T1, Toxoplasma gondii prolyl-tRNA synthetase (TgPRS) (Toxoplasma gondii, UniProt A0A7J6JUK2); assay: co-crystal structure with L95 at […] Å; TSA; malachite green aminoacylation assay (IC50); assay type: biochemical
T1 construct: gene TGRH88_057780
T1 sequence (A0A7J6JUK2 215-711): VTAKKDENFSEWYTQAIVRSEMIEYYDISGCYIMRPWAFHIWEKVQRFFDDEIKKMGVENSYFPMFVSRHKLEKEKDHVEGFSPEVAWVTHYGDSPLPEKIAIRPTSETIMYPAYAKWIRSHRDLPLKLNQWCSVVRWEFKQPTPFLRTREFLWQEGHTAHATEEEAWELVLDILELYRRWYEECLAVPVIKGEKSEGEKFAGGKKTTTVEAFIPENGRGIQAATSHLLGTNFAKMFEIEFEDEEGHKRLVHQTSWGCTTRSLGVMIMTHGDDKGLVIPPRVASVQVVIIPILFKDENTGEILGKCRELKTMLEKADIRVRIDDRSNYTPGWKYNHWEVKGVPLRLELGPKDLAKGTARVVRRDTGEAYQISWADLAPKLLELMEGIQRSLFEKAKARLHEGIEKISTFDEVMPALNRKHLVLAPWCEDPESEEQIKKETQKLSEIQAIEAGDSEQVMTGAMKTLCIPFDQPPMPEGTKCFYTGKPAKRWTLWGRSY

[2] = molecular target: T2, HsPRS (Homo sapiens, UniProt P07814); assay: malachite green aminoacylation assay, recombinant enzyme; TSA; assay type: biochemical
T2 construct: gene EPRS1
T2 sequence (P07814 whole entry): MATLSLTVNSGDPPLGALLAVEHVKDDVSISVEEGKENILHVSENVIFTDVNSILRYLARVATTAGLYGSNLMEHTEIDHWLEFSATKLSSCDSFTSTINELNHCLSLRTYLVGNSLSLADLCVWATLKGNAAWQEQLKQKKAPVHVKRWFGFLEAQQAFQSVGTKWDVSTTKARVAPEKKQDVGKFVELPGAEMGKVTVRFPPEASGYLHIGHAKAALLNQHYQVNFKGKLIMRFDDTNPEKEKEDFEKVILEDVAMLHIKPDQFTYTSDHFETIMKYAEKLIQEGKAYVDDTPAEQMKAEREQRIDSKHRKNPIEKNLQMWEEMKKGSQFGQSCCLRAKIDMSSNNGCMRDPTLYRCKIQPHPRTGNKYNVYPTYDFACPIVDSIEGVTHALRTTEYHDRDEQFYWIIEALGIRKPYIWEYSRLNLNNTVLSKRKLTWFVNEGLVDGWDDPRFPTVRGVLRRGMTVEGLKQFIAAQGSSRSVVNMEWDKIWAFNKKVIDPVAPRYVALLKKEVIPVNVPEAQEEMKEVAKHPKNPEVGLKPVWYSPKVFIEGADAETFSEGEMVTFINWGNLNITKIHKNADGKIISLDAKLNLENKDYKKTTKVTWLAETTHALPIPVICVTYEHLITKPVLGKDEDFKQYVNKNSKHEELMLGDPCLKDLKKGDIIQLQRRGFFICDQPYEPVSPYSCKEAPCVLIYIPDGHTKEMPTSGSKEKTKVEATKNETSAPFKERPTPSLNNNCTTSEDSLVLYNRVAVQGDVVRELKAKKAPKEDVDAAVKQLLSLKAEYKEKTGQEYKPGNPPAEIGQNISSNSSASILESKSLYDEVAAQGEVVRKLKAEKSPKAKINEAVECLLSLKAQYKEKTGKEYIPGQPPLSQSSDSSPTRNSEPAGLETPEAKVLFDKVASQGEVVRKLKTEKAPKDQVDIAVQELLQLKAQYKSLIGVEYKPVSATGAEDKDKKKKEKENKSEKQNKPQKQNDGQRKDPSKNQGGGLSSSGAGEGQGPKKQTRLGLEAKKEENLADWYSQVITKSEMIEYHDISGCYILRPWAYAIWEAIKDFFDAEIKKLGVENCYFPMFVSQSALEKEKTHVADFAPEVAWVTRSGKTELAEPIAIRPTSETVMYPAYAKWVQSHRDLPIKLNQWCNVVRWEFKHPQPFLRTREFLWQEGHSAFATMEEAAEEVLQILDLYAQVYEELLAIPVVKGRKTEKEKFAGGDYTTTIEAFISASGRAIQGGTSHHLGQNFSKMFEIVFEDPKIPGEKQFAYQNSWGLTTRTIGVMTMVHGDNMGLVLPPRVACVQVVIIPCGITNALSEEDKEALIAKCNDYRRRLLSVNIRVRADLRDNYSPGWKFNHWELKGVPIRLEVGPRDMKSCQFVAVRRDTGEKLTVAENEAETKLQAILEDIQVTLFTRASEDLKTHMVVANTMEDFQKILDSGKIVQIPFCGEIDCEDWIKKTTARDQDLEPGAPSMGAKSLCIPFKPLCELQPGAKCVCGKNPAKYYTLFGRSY

[3] = molecular target: T1, Toxoplasma gondii prolyl-tRNA synthetase (TgPRS); assay: co-crystal structures at […] Å (with L-pro, 7EVV; with HFG, 7EVU); TSA; malachite green aminoacylation assay (IC50); assay type: biochemical
[4] = molecular target: T1, Toxoplasma gondii prolyl-tRNA synthetase (TgPRS); assay: co-crystal structure with L95 at […] Å; assay type: binding

Q: What does the source list for `O=C(C[C@H]1NCCC[C@@H]1O)Cn1cnc2cc(Br)c(Cl)cc2c1=O` (racemic) [HFG, halofuginone]?
A: IC50 [1]: 0.00541 µM; IC50 ([2]; read-out: IC50): 0.0106 µM

Q: How did the IC50 [3] turn out when `Cc1cc(N2CC[C@@](C#N)(C3CC3)C2=O)cc(NC(=O)Cc2ccccc2)n1` [L95] was run?
A: 0.0477 µM

Q: What about the IC50 [2] of the same molecule?
A: 0.0477 µM

Q: How did the “co-crystal structure with L95 at 1.7 Å” value [4] turn out when `O=C(O)[C@@H]1CCCN1` [L-pro, L-proline] was run?
A: forms a salt bridge between the carboxylic group of L-pro and the guanidium group of Arg470
